# Experimental data as given in PubChem BioAssay AID1963849 (Molecular Pharmacology Branch, DTP, NCI, 2024).
# Tested on: 299254-011-R-J1-PDC complex spheroid viability
# Assay: Anticancer human tumor 299254-011-R-J1-PDC patient-derived melanoma cell line growth inhibition [POLQ]
# Conditions: for IC50: curve of first compound; for viability, T/C: stronger effect = lower value
# Outline: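 Growth inhibition in 3D: complex spheroids (tumor PDC, HUVEC, MSC) treated with POLQ inhibitor combinations; where Cmax unknown, highest tested concentration 10 microM, except SN-38 at 1 microM.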
# 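Further: spheroids exposed to drugs for one week before measurement.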
# 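Wherever viability, T/C is given: percent viability relative to DMSO vehicle control taken as 100%.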
smiles,measurement,setting,value
C=CCn1c(=O)c2cnc(Nc3ccc(N4CCN(C)CC4)cc3)nc2n1-c1cccc(C(C)(C)O)n1 + Nc1ccc(C#CCN(C(=O)Cc2ncc(C(F)(F)F)cc2C(F)(F)F)c2ccc(F)cc2)nn1,IC50,second compound 0.0316 µM,> 1 µM
same,IC50,second compound 0.1 µM,> 1 µM
same,IC50,second compound 0.316 µM,> 1 µM
same,IC50,second compound 1 µM,> 1 µM
same,IC50,second compound 3.16 µM,> 1 µM
same,IC50,second compound 10 µM,> 1 µM
same,"viability, T/C","second compound 0.0316 µM, first compound 0.00316 µM",104%
same,"viability, T/C","second compound 0.0316 µM, first compound 0.01 µM",85%
same,"viability, T/C","second compound 0.0316 µM, first compound 0.0316 µM",98.5%
same,"viability, T/C","second compound 0.0316 µM, first compound 0.1 µM",105%
same,"viability, T/C","second compound 0.0316 µM, first compound 0.316 µM",95.8%
same,"viability, T/C","second compound 0.0316 µM, first compound 1 µM",68.3%
same,"viability, T/C","second compound 0.1 µM, first compound 0.00316 µM",101%
same,"viability, T/C","second compound 0.1 µM, first compound 0.01 µM",93.1%
same,"viability, T/C","second compound 0.1 µM, first compound 0.0316 µM",94.9%
same,"viability, T/C","second compound 0.1 µM, first compound 0.1 µM",102%
same,"viability, T/C","second compound 0.1 µM, first compound 0.316 µM",104%
same,"viability, T/C","second compound 0.1 µM, first compound 1 µM",69.9%
same,"viability, T/C","second compound 0.316 µM, first compound 0.00316 µM",104%
same,"viability, T/C","second compound 0.316 µM, first compound 0.01 µM",101%
same,"viability, T/C","second compound 0.316 µM, first compound 0.0316 µM",93.4%
same,"viability, T/C","second compound 0.316 µM, first compound 0.1 µM",93.4%
same,"viability, T/C","second compound 0.316 µM, first compound 0.316 µM",104%
same,"viability, T/C","second compound 0.316 µM, first compound 1 µM",74.6%
same,"viability, T/C","second compound 1 µM, first compound 0.00316 µM",102%
same,"viability, T/C","second compound 1 µM, first compound 0.01 µM",120%
same,"viability, T/C","second compound 1 µM, first compound 0.0316 µM",107%
same,"viability, T/C","second compound 1 µM, first compound 0.1 µM",97.2%
same,"viability, T/C","second compound 1 µM, first compound 0.316 µM",94.4%
same,"viability, T/C","second compound 1 µM, first compound 1 µM",58%
same,"viability, T/C","second compound 3.16 µM, first compound 0.00316 µM",95.5%
same,"viability, T/C","second compound 3.16 µM, first compound 0.01 µM",95.5%
same,"viability, T/C","second compound 3.16 µM, first compound 0.0316 µM",95.7%
same,"viability, T/C","second compound 3.16 µM, first compound 0.1 µM",95.3%
same,"viability, T/C","second compound 3.16 µM, first compound 0.316 µM",101%
same,"viability, T/C","second compound 3.16 µM, first compound 1 µM",72.5%
same,"viability, T/C","second compound 10 µM, first compound 0.00316 µM",103%
same,"viability, T/C","second compound 10 µM, first compound 0.01 µM",92%
same,"viability, T/C","second compound 10 µM, first compound 0.0316 µM",88.6%
same,"viability, T/C","second compound 10 µM, first compound 0.1 µM",87.5%
same,"viability, T/C","second compound 10 µM, first compound 0.316 µM",77.3%
same,"viability, T/C","second compound 10 µM, first compound 1 µM",58.9%
